Read-outs that look alike come from different tables or passages of the source.
How the values were obtained:
[1] = ANTS/DPX liposome leakage assay, 3POPC/1POPG vesicles; type: biochemical; conditions: for Peptide Concentration-induced 50% ANTS/DPX leakage at pH 4.8 (L/P) 3POPC/1POPG Vesicle / Peptide Concentration-induced 50% ANTS/DPX leakage at pH 7.4 (L/P) 3POPC/1POPG Vesicle: 0.5 mM vesicles; for liposome leakage activity from anionic vesicle at pH 4.8: compared with zwitterionic vesicle
Procedure: (§1) In brief, 0.5 mM POPC vesicles (grey) or POPC:POPG vesicles (ratio 3:1, black) were incubated with peptide concentrations of 0, 0.02, 0.04, 0.08, 0.16, 0.32, 0.64, 1.25, 2.5, 5, 10, and 20 μM in each A) hydrochloric acid-adjusted phosphate buffered saline (1X, pH 4.8) and B) phosphate buffered saline (1X, pH 7.4).
(§2) The lipids 1-palmitoyl-2-oleoyl-sn-glycero-3-phosphocholine (POPC), 1-palmitoyl-2-oleoyl-snglycero-3-phospho-(1′-rac-glycerol) (POPG) were purchased from Avanti Polar Lipids and dissolved in chloroform. Large unilamellar vesicles (LUVs) were produced by extrusion through 100 nm pore filter using an extruder and filters purchased from Avanti Polar Lipids.
(§3) 5 mM ANTS (8-aminonaphthalene-1,3,6-trisulfonic acid, disodium salt) and 12.5 mM DPX (p-xylene-bis-pyridinium bromide) were entrapped in 0.1 μm diameter extruded vesicles with lipids. Gel filtration chromatography using a Sephadex G-100 (GE Healthcare Life Sciences Inc) was used to remove external free ANTS/DPX from LUVs with entrapped contents. LUVs were diluted to 0.5 mM and used to measure the leakage activity by addition of aliquots of peptides. Leakage was measured after 3 h incubation. 10% Triton was used as the positive control to measure the maximum leakage of the vesicle. Fluorescence emission spectra were recorded using excitation and emission wavelength of 350 nm and 510 nm for ANTS/DPX using a BioTek Synergy H1 Hybrid Multi-Mode Reader.
(§4) Table 4 illustrates peptide concentration-induced 50 ANTS/DPX liposome leakage. 0.5 mM POPC and 3POPC/1POPG vesicles were fixed and incubated with titrated peptide concentration (0, 0.02, 0.04, 0.08, 0.16, 0.32, 0.64, 1.25, 2.5, 5, 10, and 20 μM) each in phosphate buffered saline (1X, pH 7.4) and hydrochloric acid-adjusted phosphate buffered saline (1X, pH 4.8). The values are shown as lipid per peptide. IN-terminus is free, C-terminus: —W—NH2.

[2] = test system: HMLER (human breast cancer bulk cell); assay: MTT cytotoxicity assay, HMLER; type: cell-based; conditions: 72 hr, MTT; read-out: IC50 HMLER
[3] = Tryptophan fluorescent binding assay, POPC vesicles; conditions: 50 μM peptide, PBS pH 7.4
Procedure: (§5) In brief, 50 μM peptides were fixed and incubated with titrated POPC vesicles (black) or 3POPC/1POPG vesicles (grey) at concentrations of 0, 12.5, 25, 50, 100, 250, 500, 1000, 2500, and 5000 μM in phosphate buffered saline (1X, pH 7.4). The lipid concentration that causes 50% peptide binding was determined using a tryptophan fluorescent binding assay and the values are shown as lipid per peptide.
as §2
(§6) Peptides (50 μM) and POPC/POPG LUVs (600 μM) were prepared in 10 mM phosphate buffer (pH 7.0). The solutions were incubated and measured after 60 minutes. Excitation was fixed at 280 nm (slit 9 nm) and emission was collected from 300 to 450 nm (slit 9 nm). The spectra were recorded using a Synergy H1 Hybrid Multi-Mode Reader (FIG. 3A) and Cytation™ 5 Cell Imaging Multi-Mode Reader (FIG. 2) from BioTek and were averaged over 3 scans.
(§7) Table 3 illustrates the lipid concentration-induced 50% peptide binding onto a liposome. 50 μM peptide was fixed and incubated with titrated lipid (POPC vesicles or 3POPC/1POPG vesicles) at concentrations of 0, 12.5, 25, 50, 100, 250, 500, 1000, 2500, and 5000 μM in phosphate buffered saline (1X, pH 7.4). The lipid concentration that causes 50% peptide binding was determined using tryptophan fluorescent binding assay and the values are shown as lipid per peptide. IN-terminus is free, C-terminus: —W—NH2.

[4] = test system: HEK293T (human embryonic kidney cell); assay: MTT cytotoxicity assay, HEK293T; type: cell-based; conditions: 72 hr, MTT; read-out: IC50 HEK293T
[5] = test system: MCF-10A (human breast epithelial cell); assay: cells
Excerpt: HMLER (human mammary endothelial cancer cells), HMLER-shEcad (human mammary endothelial cancer stem cells), and MCF-10A (healthy human mammary endothelial) cells were maintained in Mammary Epithelial Cell Growth Medium (MEGM) with supplements and growth factors: bovine pituitary extract (BPE), hydrocortisone, human epidermal growth factor (hEGF), insulin, and gentamicin/amphotericin-B. HEK293T (human embryonic kidney cell), and U2OS (homo sapiens bone osteosarcoma) cells were maintained in Dulbecco's Modified Eagle's Medium (DMEM) with a final concentration of 10% fetal bovine serum. The cells were grown in T75 flask at 310 K in a humidified atmosphere containing 5% CO2.
The colourimetric MTT (3-(4,5-dimethylthiazol-2-yl)-2,5-diphenyltetrazolium bromide) assay was used to determine the toxicity of the anti-cancer peptides and conventional anti-cancer drugs. 5×10^3 cells were seeded in each well of a 96-well microplate. The cells were incubated overnight. Elevated concentrations of the compounds (0, 0.1, 0.2, 0.4, 0.8, 1.6, 3.1, 6.3, 12.5, 25, 50 and 100 μM) were added and incubated for 72 hr with a total volume 200 μL. The stock solutions of the compounds were prepared as 5 mM solutions in DMSO and diluted using media or in pure water. The final concentration of DMSO in each well was either 0.5% or 0% and this amount was present in the untreated control. After 72 hr, 20 μL of a 4 mg/mL solution of MTT in PBS was added to each well, and the plate was incubated for an additional 4 hr. The MEGM/MTT mixture was aspirated and 100 μL of DMSO was added to dissolve the resulting purple formazan crystals. The absorbance of the solutions in each well was read at 550 nm wavelength. Absorbance values were normalized to either DMSO-containing or non DMSO-containing control wells and plotted as concentration of test compound versus % cell viability. ICso values were interpolated from the resulting dose dependent curves.
The peptides were screened against several different human cell lines and their cytotoxicity were determined. Cell lines utilised include MCF-10A (human breast epithelial cell), HMLER (human breast cancer bulk cell), HMLER-shEcad (human breast cancer stem cell), HEK293T (human embryonic kidney cell), and U2OS (human bone osteosarcoma).

[6] = test system: HMLER-shEcad (human breast cancer stem cell); assay: MTT cytotoxicity assay, HMLER-shEcad; type: cell-based; conditions: 72 hr, MTT; read-out: IC50 HMLER-shEcad
[7] = test system: U2OS (human bone osteosarcoma); assay: MTT cytotoxicity assay, U2OS; type: cell-based; conditions: 72 hr
[8] = Tryptophan fluorescent binding assay, 3POPC/1POPG vesicles; conditions: 50 μM peptide, PBS pH 7.4
Procedure: as §5, §2, §6, §7

[9] = ANTS/DPX liposome leakage assay, POPC vesicles; type: biochemical; conditions: 0.5 mM vesicles
Procedure: as §1, §2, §3, §4

Compound | Peptide Concentration-induced 50% ANTS/DPX leakage at pH 4.8 (L/P) 3POPC/1POPG Vesicle [1] | Peptide Concentration-induced 50% ANTS/DPX leakage at pH 7.4 (L/P) 3POPC/1POPG Vesicle [1] | liposome leakage activity from anionic vesicle at pH 4.8 [1] | IC50 [2] | Lipid Concentration-induced 50% Peptide Binding (L/P) POPC Vesicle [3] | IC50 [4] | IC50 [5] | IC50 [6] | IC50 [7] | Lipid Concentration-induced 50% Peptide Binding (L/P) 3POPC/1POPG Vesicle [8] | Peptide Concentration-induced 50% ANTS/DPX leakage at pH 4.8 (L/P) POPC Vesicle [9] | Peptide Concentration-induced 50% ANTS/DPX leakage at pH 7.4 (L/P) POPC Vesicle [9] | IC50 ([5]; read-out: IC50 MCF-10A, 72 hr, MTT)
CC(C)C[C@H](NC(=O)CN)C(=O)N[C@@H](CC(C)C)C(=O)N[C@@H](CCC(=O)O)C(=O)N[C@@H](CC(C)C)C(=O)N[C@@H](CC(C)C)C(=O)N[C@@H](CCC(=O)O)C(=O)N[C@@H](CC(C)C)C(=O)N[C@@H](CC(C)C)C(=O)N[C@@H](CC(C)C)C(=O)N[C@@H](Cc1c[nH]cn1)C(=O)N[C@@H](C)C(=O)N[C@@H](C)C(=O)NCC(=O)N[C@@H](Cc1c[nH]c2ccccc12)C(N)=O [EEH] | 168 L/P | 755 L/P | relatively higher liposome leakage activity | 3.3 ± 0.14 µM | 0.50 L/P | 12.9 ± 0.14 µM | ≥ 100 µM | 3.6 ± 0.85 µM | 19.6 ± 3.96 µM | 0.50 L/P | 58 L/P | 738 L/P | –
CC(C)C[C@H](NC(=O)CN)C(=O)N[C@@H](CC(C)C)C(=O)N[C@@H](CCC(=O)O)C(=O)N[C@@H](CC(C)C)C(=O)N[C@@H](CC(C)C)C(=O)N[C@@H](Cc1c[nH]cn1)C(=O)N[C@@H](CC(C)C)C(=O)N[C@@H](CC(C)C)C(=O)N[C@@H](CC(C)C)C(=O)N[C@@H](CCC(=O)O)C(=O)N[C@@H](C)C(=O)N[C@@H](C)C(=O)NCC(=O)N[C@@H](Cc1c[nH]c2ccccc12)C(N)=O [EHE] | 384 L/P | 706 L/P | relatively higher liposome leakage activity | 3.9 ± 0.28 µM | 0.44 L/P | 13 µM | ≥ 100 µM | 2.55 ± 0.07 µM | 18.2 ± 1.06 µM | 0.44 L/P | 75 L/P | 952 L/P | –
CC(C)C[C@H](NC(=O)CN)C(=O)N[C@@H](CC(C)C)C(=O)N[C@@H](CCCCN)C(=O)N[C@@H](CC(C)C)C(=O)N[C@@H](CC(C)C)C(=O)N[C@@H](CCC(=O)O)C(=O)N[C@@H](CC(C)C)C(=O)N[C@@H](CC(C)C)C(=O)N[C@@H](CC(C)C)C(=O)N[C@@H](CCC(=O)O)C(=O)N[C@@H](C)C(=O)N[C@@H](C)C(=O)NCC(=O)N[C@@H](Cc1c[nH]c2ccccc12)C(N)=O [KEE] | 108 L/P | 657 L/P | – | 3.75 ± 0.78 µM | 0.20 L/P | 11.1 ± 1.84 µM | ≥ 100 µM | 2.05 ± 0.21 µM | 49.4 ± 13.3 µM | 0.20 L/P | 97 L/P | 626 L/P | –
GLLDLLELLLEAAG [DEE] | 164 L/P | 597 L/P | – | 5.55 ± 0.35 µM | 0.63 L/P | 9.91 ± 0.44 µM | – | 6.05 ± 2.76 µM | 61 ± 1.41 µM | 0.38 L/P | 110 L/P | 644 L/P | 8.4 ± 1.56 µM

— patent publication US20230372433A1, “NANOPARTICLE FOR ANTI-CANCER PEPTIDES AND USES THEREOF” (KING'S COLLEGE LONDON, priority 2020, published 2023)
